Measurements reported in patent US20210401867A1, “PHOTOSENSITIZERS AND METHOD OF TREATING CANCER USING THE SAME” (Cheng-Wen Wu, priority 2018, published 2021).

How the values were obtained:
FaDu cells [1] = assay: colony forming assay of FaDu cells; assay type: cell-based, human
Procedure: In the following examples, FaDu cells are used in cell viability tests and colony forming assays. FaDu cells (ATCC HTB-43) is a human head-and-neck cell line with squamous phenotype. FaDu cells used in the following examples are cultured in DMEM medium supplemented with 10% fetal bovine serum (FBS) and 1% penicillin/streptomycin, in a humidified incubator maintained at 37° C. and 5% CO2.
Referring to FIGS. 9A-C, an in vitro cell viability chart of FaDu cells when treated with BrdU alone, NR alone, and BrdU and NR, is provided in accordance with an exemplary embodiment of the present disclosure. NR treatments in FIGS. 9A, 9B, and 9C are similar with the experiment procedures for FIG. 6. In samples where FaDu cells are treated with BrdU and NR, FaDu cells are incubated with BrdU for 24 hours before irradiated with NR. Referring to FIG. 9B, a colony forming assay result of FaDu cells after the treatments described in […], is provided in accordance with an exemplary embodiment of the present disclosure. The colony forming assay in FIG. 9B are proceeded as following: FaDu cells treated by different regimens are grouped and seeded in 6-well-plates with 1000 cells in each of the well and cultured for 14 days; the culture medium was replaced every 3 to 4 days; in the end of the experiment, the cells are washed twice with PBS and fixed with 4% paraformaldehyde for 15 minutes and stained with 0.1% crystal violet. Referring to FIG. 9C, a quantitative result of the colony forming assay in FIG. 9B is provided in accordance with an exemplary embodiment of the present disclosure. In FIG. 9C, the results of the colony forming assay are quantified by microscopic examination by stereomicroscope.

FaDu cells [2] = assay: in vitro cell viability of FaDu cells; assay type: cell-based, human; settings: for cytotoxicity: viability and colony forming

dibromocurcumin [DBC]
colony forming assay versus DBC or NR alone (FaDu cells [1]; DBC combined with 1 Gy of 14 keV NR): same result
colony forming inhibition (FaDu cells [1]; FaDu cells, 40 μM DBC): about 50%
cytotoxicity to FaDu cells (FaDu cells [2]; 20 μM of DBC combined with 1 Gy of NR): significantly higher than using DBC or NR alone
cytotoxicity of the combination with NR (FaDu cells [2]; DBC and NR, FaDu cells): synergistic cytotoxicity
cytotoxicity (FaDu cells [2]; DBC dosage less than 20 μM): little cytotoxicity
cytotoxicity (FaDu cells [2]; DBC dosage more than 120 μM): efficiently kills FaDu cells
cell viability (FaDu cells [2]; FaDu cells, 80 μM DBC for 24 hours, Day 7): less than 50%
